The values below come from paper PMC6427912 (Journal of medicinal chemistry, 2019).

Like-named read-outs stand apart in the source and are kept apart here. Bounds are passed on as bounds.

The target of data set [1] is EcOPPS (E. coli octaprenyl diphosphate synthase) (Escherichia coli, UniProt P0AD57). In words: OPPS enzyme inhibition assay. The format is biochemical. As to conditions: IC50 against EcOPPS.
The subject of a further data set is S. aureus. In words: S. aureus growth inhibition assay. The format is cell-based, Staphylococcus aureus. To be noted: S. aureus growth inhibition.
Data set [2] has as its target SaHepPPS (S. aureus heptaprenyl diphosphate synthase) (Staphylococcus aureus, UniProt Q2FYG6). In words: HepPPS enzyme inhibition assay. The format is biochemical. As to conditions: IC50 against SaHepPPS.
For the next data set, the system named is Mycobacterium smegmatis. Put plainly: M. smegmatis growth inhibition assay. The format is cell-based.
In the next data set the test system is B. anthracis Sterne. The format is cell-based, Bacillus anthracis. As to conditions: B. anthracis Sterne growth inhibition.
Data set [3] deals with B. subtilis. Put plainly: B. subtilis growth inhibition assay. The format is cell-based, Bacillus subtilis.
Another data set concerns HEK293 cells. In words: HEK293 cell growth inhibition assay. The format is cell-based, human. As to conditions: for HEK293 toxicity (ED50): 96 hours incubation; for HEK 293: HEK293 cell growth inhibition ED50, 24 hr incubation.
The subject of data set [4] is B. subtilis. In words: B. subtilis serum binding assay. To be noted: 4% or 10% fetal bovine serum. The format is cell-based, Bacillus subtilis.
Data set [5] in a line: HEK293 cell growth inhibition assay. The format is cell-based, human. As to conditions: human, HEK293 cells.

Chain of EcOPPS (E. coli octaprenyl diphosphate synthase) (P0AD57 whole entry): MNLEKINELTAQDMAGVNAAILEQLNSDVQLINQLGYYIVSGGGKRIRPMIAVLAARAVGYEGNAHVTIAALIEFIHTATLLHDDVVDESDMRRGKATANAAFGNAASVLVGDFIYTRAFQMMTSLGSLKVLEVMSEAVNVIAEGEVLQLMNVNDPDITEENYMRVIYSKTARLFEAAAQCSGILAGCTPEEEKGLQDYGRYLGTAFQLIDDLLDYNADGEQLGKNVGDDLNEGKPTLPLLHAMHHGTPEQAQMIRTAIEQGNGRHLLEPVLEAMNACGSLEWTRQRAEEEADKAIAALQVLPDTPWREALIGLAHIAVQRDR

What is called IC50 is the concentration needed to halve the response being measured. In turn, `CCCCCCCCCCOc1ccc[n+](CC(P(=O)([O-])O)P(=O)(O)O)c1` (stereo not drawn) [Compound 6] yielded an IC50 in [1] of about 0.006 µM.
On the same count and under the same terms, the figure for `O=P(O)(O)C(O)(Cn1ccnc1)P(=O)(O)O` [Compound 24, zoledronate] is under 1 µM.
As for `O=P(O)(O)C(O)(Cc1cccc(-c2cccc3c2oc2ccccc23)c1)P(=O)(O)O` [Compound 69], the “Sa ED50” value in the data set with S. aureus (value in parentheses) was 19 µM. Further, the IC50 in data set [2] is 1 to 2 µM; in data set [1] it was about 330 µM.
Consider `CCCCCCCCCCCc1ccc[n+](CC(P(=O)([O-])O)P(=O)(O)O)c1` (stereo not drawn) [Compound 76, Hydrogen (1-phosphono-2-(3-undecylpyridin-1-ium-1-yl)ethyl)phosphonate], for which the “Sa ED50” value with S. aureus came to 13 µg/mL; in the data set with S. aureus (value in parentheses) it was 30 µM. The entries for the “Ms ED50” value in the data set with Mycobacterium smegmatis (48 hours) and in the data set with Mycobacterium smegmatis (value in parentheses) were 6.1 µg/mL and 14 µM, respectively. Also, the “Ba ED50” value in the data set on B. anthracis Sterne was 0.6 µg/mL; with B. anthracis Sterne (value in parentheses), 1.4 µM. Besides, the “Bs ED50” value in the data set on B. subtilis [3] (12 hours) amounted to 2.1 µg/mL; with B. subtilis [3] (value in parentheses), 4.8 µM. Also, the “HEK293 toxicity (ED50)” value in the data set on HEK293 cells is 7.3 µM. The “HEK 293” value with HEK293 cells was found to be 96 µg/mL. In addition, the “effect of serum on B. subtilis growth inhibition” value in the data set with B. subtilis [4] was “no effect”.
On to `CC(C)CCCC(C)CCCc1ccc[n+](CC(P(=O)([O-])O)P(=O)(O)O)c1` (stereo not drawn) [Compound 77, Hydrogen(2-(3-(4,8-dimethylnonyl)pyridin-1-ium-1-yl)-1-phosphonoethyl) phosphonate], for which the “Sa ED50” value in the data set on S. aureus was found to be 13 µg/mL; with S. aureus (value in parentheses) it was 31 µM. The “Ms ED50” value is 5.9 µg/mL in the data set with Mycobacterium smegmatis (48 hours) and 14 µM in the data set with Mycobacterium smegmatis (value in parentheses). In addition, the results for the “Ba ED50” value in the data set on B. anthracis Sterne and in the data set with B. anthracis Sterne (value in parentheses) were 2.1 µg/mL and 5.0 µM, respectively. The “Bs ED50” value in the data set with B. subtilis [3] (12 hours) came out at 2.2 µg/mL; in the data set with B. subtilis [3] (value in parentheses), 5.2 µM. Moreover, the “HEK293 toxicity (ED50)” value with HEK293 cells was 140 µM. Besides, in the data set with HEK293 cells, the “HEK 293” value is 194 µg/mL. In the data set with B. subtilis [4], the “effect of serum on B. subtilis growth inhibition” value is “no effect”.
In the case of `CC(C)CCCC(C)CCSc1ccc[n+](CC(P(=O)([O-])O)P(=O)(O)O)c1` (stereo not drawn) [Compound 79, Hydrogen(2-(3-((3,7-dimethyloctyl)thio)pyridin-1-ium-1-yl)-1-phosphonoethyl) phosphonate], the “Sa ED50” value with S. aureus was determined as 18 µg/mL; in the data set with S. aureus (value in parentheses), 41 µM. Further, the figures for the “Ms ED50” value in the data set on Mycobacterium smegmatis (48 hours) and with Mycobacterium smegmatis (value in parentheses) were 6.2 µg/mL and 14 µM, respectively. Besides, the figures for the “Ba ED50” value in the data set on B. anthracis Sterne and in the data set on B. anthracis Sterne (value in parentheses) were 0.4 µg/mL and 0.9 µM, respectively. Moreover, the figures for the “Bs ED50” value with B. subtilis [3] (12 hours) and in the data set with B. subtilis [3] (value in parentheses) were 2.8 µg/mL and 6.4 µM, respectively. Moreover, the “HEK 293” value came to 224 µg/mL with HEK293 cells and 510 µM with HEK293 cells (value in parentheses).
As to `CC(C)CCCC(C)CCCc1cc[n+](CC(P(=O)([O-])O)P(=O)(O)O)cc1` (stereo not drawn) [Compound 80, Hydrogen(2-(4-(4,8-dimethylnonyl)pyridin-1-ium-1-yl)-1-phosphonoethyl) phosphonate], the “Sa ED50” value in the data set with S. aureus amounted to 21 µg/mL; in the data set with S. aureus (value in parentheses) it was 50 µM. In addition, the results for the “Ms ED50” value in the data set on Mycobacterium smegmatis (48 hours) and with Mycobacterium smegmatis (value in parentheses) were 7.2 µg/mL and 17 µM, respectively. Further, the “Ba ED50” value worked out at 2.2 µg/mL in the data set with B. anthracis Sterne and 5.2 µM in the data set with B. anthracis Sterne (value in parentheses). Also, the “Bs ED50” value turned out to be 3.1 µg/mL with B. subtilis [3] (12 hours) and 7.4 µM in the data set on B. subtilis [3] (value in parentheses). Also, the “HEK 293” value in the data set with HEK293 cells came out at 295 µg/mL; in the data set on HEK293 cells (value in parentheses), 700 µM. This molecule showed an IC50 in data set [5] of about 1000 µM.
Turning to `CC(C)CCCC(C)CCn1cc[n+](CC(P(=O)([O-])O)P(=O)(O)O)c1` (stereo not drawn) [Compound 82, Hydrogen(2-(1-(3,7-dimethyloctyl)-1H-imidazol-3-ium-3-yl)-1-phosphonoethyl) phosphonate], the “Sa ED50” value came to 34 µg/mL in the data set on S. aureus and 86 µM with S. aureus (value in parentheses). In addition, the “Ms ED50” value in the data set with Mycobacterium smegmatis (48 hours) was determined as 15 µg/mL; in the data set on Mycobacterium smegmatis (value in parentheses) it was 38 µM. Moreover, the “Ba ED50” value in the data set with B. anthracis Sterne turned out to be 4.3 µg/mL; with B. anthracis Sterne (value in parentheses) it was 11 µM. Moreover, the “Bs ED50” value stood at 4.6 µg/mL in the data set with B. subtilis [3] (12 hours) and 12 µM in the data set with B. subtilis [3] (value in parentheses). Besides, the “HEK 293” value in the data set with HEK293 cells amounted to 170 µg/mL; in the data set on HEK293 cells (value in parentheses) it was 420 µM.
Turning to `CCCCCCCCCCCCCc1ccc[n+](CC(P(=O)([O-])O)P(=O)(O)O)c1` (stereo not drawn) [Compound 83, Hydrogen (1-phosphono-2-(3-tridecylpyridin-1-ium-1-yl)ethyl)phosphonate], the “Sa ED50” value in the data set on S. aureus is 30 µg/mL; with S. aureus (value in parentheses), 67 µM. The “Ms ED50” value in the data set on Mycobacterium smegmatis (48 hours) stood at 7.2 µg/mL; in the data set on Mycobacterium smegmatis (value in parentheses), 16 µM. Also, the results for the “Ba ED50” value in the data set on B. anthracis Sterne and in the data set on B. anthracis Sterne (value in parentheses) were 2.2 µg/mL and 4.9 µM, respectively. Moreover, the “Bs ED50” value stood at 5.5 µg/mL in the data set on B. subtilis [3] (12 hours) and 12 µM in the data set with B. subtilis [3] (value in parentheses). The entries for the “HEK 293” value in the data set with HEK293 cells and in the data set with HEK293 cells (value in parentheses) were 22 µg/mL and 48 µM, respectively.
As for `CC(C)CCCC(C)CCOc1cc[n+](CC(P(=O)([O-])O)P(=O)(O)O)cc1` (stereo not drawn) [Compound 84, Hydrogen (2-(4-((3,7-dimethyloctyl)oxy)pyridin-1-ium-1-yl)-1-phosphonoethyl) phosphonate], in the data set on S. aureus (value in parentheses), the “Sa ED50” value amounted to 66 µM. Besides, the “Ms ED50” value with Mycobacterium smegmatis (48 hours) worked out at 150 µg/mL; in the data set with Mycobacterium smegmatis (value in parentheses), 350 µM. The figures for the “Ba ED50” value in the data set on B. anthracis Sterne and with B. anthracis Sterne (value in parentheses) were 2.5 µg/mL and 5.9 µM, respectively. Further, in the data set on B. subtilis [3] (value in parentheses), the “Bs ED50” value came to 14 µM. Further, the “HEK 293” value with HEK293 cells was 420 µg/mL; in the data set on HEK293 cells (value in parentheses), 1000 µM. Moreover, the IC50 in data set [5] is about 1000 µM.
For the molecule `CC(C)CCCC(C)CCSc1cc[n+](CC(P(=O)([O-])O)P(=O)(O)O)cc1` (stereo not drawn) [Compound 85, Hydrogen(2-(4-((3,7-dimethyloctyl)thio)pyridin-1-ium-1-yl)-1-phosphonoethyl) phosphonate], the figures for the “Sa ED50” value with S. aureus and with S. aureus (value in parentheses) were 31 µg/mL and 71 µM, respectively. The “Ms ED50” value was determined as 70 µg/mL in the data set on Mycobacterium smegmatis (48 hours) and 160 µM with Mycobacterium smegmatis (value in parentheses). Also, the “Ba ED50” value came out at 1.1 µg/mL with B. anthracis Sterne and 2.5 µM in the data set with B. anthracis Sterne (value in parentheses). Besides, the “Bs ED50” value in the data set with B. subtilis [3] (12 hours) was 7.0 µg/mL; in the data set with B. subtilis [3] (value in parentheses), 16 µM. Also, the “HEK 293” value in the data set with HEK293 cells was 440 µg/mL; in the data set with HEK293 cells (value in parentheses), 1000 µM.
For `CC(C)CCCC(C)CCOc1cc(NCC(P(=O)(O)O)P(=O)(O)O)ccn1` (stereo not drawn) [Compound 87, (2-((2-((3,7-Dimethyloctyl)oxy)pyridin-4-yl)amino)ethane-1,1-diyl)bis(phosphonic acid)], the “Sa ED50” value in the data set on S. aureus is 35 µg/mL; in the data set with S. aureus (value in parentheses), 80 µM. Further, the “Ms ED50” value was 75 µg/mL in the data set with Mycobacterium smegmatis (48 hours) and 170 µM in the data set with Mycobacterium smegmatis (value in parentheses). Moreover, the “Ba ED50” value turned out to be 3.2 µg/mL in the data set on B. anthracis Sterne and 7.3 µM in the data set on B. anthracis Sterne (value in parentheses). Also, the “Bs ED50” value in the data set with B. subtilis [3] (12 hours) was 21 µg/mL; in the data set on B. subtilis [3] (value in parentheses), 48 µM. In addition, the “HEK 293” value with HEK293 cells is 530 µg/mL; in the data set with HEK293 cells (value in parentheses), 1200 µM.
Turning to `CC(C)CCCC(C)CCOc1ccnc(NC(P(=O)(O)O)P(=O)(O)O)c1` (stereo not drawn) [Compound 95, (((4-((3,7-Dimethyloctyl)oxy)pyridin-2-yl)amino)methylene)bisphosphonic acid], the “Sa ED50” value in the data set with S. aureus worked out at 69 µg/mL; in the data set with S. aureus (value in parentheses) it was 140 µM. For the same molecule, the “Ms ED50” value in the data set with Mycobacterium smegmatis (48 hours) was determined as 79 µg/mL; in the data set with Mycobacterium smegmatis (value in parentheses), 160 µM. The “Ba ED50” value in the data set with B. anthracis Sterne came out at 2.5 µg/mL; in the data set with B. anthracis Sterne (value in parentheses), 5.2 µM. Besides, the “Bs ED50” value in the data set on B. subtilis [3] (12 hours) was 110 µg/mL; with B. subtilis [3] (value in parentheses), 230 µM. Also, the “HEK 293” value was 630 µg/mL in the data set on HEK293 cells and 1300 µM in the data set with HEK293 cells (value in parentheses).
With “(((6-(4,8-Dimethylnonyl)pyridin-2-yl)amino)methylene)bis(phosphonic acid) [Compound 89]”, the “Sa ED50” value worked out at 32 µg/mL in the data set with S. aureus and 73 µM in the data set with S. aureus (value in parentheses). Besides, the “Ms ED50” value came out at 93 µg/mL in the data set on Mycobacterium smegmatis (48 hours) and 210 µM in the data set with Mycobacterium smegmatis (value in parentheses). Besides, the figures for the “Ba ED50” value in the data set with B. anthracis Sterne and in the data set on B. anthracis Sterne (value in parentheses) were 3.0 µg/mL and 6.9 µM, respectively. In addition, the “Bs ED50” value with B. subtilis [3] (12 hours) amounted to 26 µg/mL; in the data set on B. subtilis [3] (value in parentheses) it was 60 µM. Also, the results for the “HEK 293” value in the data set with HEK293 cells and in the data set with HEK293 cells (value in parentheses) were 480 µg/mL and 1100 µM, respectively.
